The results in this text go back to US10683278B2 (JINAN UNIVERSITY, priority 2015, dated 2020).

“And” between values parts separate entries of the source, which are not always exact repeats. Equal entries are not always repeated.

One may read the IC50 as the concentration at which inhibition is half-maximal. A lower IC50 goes with greater potency in that assay. The inhibition is the drop in the measured response relative to a control, in per cent.

Assay [1] concerns the target T1, AXL kinase (Homo sapiens, UniProt P30530).
T1 construct: purchased Invitrogen PV4803
T1 sequence (P30530 26-894): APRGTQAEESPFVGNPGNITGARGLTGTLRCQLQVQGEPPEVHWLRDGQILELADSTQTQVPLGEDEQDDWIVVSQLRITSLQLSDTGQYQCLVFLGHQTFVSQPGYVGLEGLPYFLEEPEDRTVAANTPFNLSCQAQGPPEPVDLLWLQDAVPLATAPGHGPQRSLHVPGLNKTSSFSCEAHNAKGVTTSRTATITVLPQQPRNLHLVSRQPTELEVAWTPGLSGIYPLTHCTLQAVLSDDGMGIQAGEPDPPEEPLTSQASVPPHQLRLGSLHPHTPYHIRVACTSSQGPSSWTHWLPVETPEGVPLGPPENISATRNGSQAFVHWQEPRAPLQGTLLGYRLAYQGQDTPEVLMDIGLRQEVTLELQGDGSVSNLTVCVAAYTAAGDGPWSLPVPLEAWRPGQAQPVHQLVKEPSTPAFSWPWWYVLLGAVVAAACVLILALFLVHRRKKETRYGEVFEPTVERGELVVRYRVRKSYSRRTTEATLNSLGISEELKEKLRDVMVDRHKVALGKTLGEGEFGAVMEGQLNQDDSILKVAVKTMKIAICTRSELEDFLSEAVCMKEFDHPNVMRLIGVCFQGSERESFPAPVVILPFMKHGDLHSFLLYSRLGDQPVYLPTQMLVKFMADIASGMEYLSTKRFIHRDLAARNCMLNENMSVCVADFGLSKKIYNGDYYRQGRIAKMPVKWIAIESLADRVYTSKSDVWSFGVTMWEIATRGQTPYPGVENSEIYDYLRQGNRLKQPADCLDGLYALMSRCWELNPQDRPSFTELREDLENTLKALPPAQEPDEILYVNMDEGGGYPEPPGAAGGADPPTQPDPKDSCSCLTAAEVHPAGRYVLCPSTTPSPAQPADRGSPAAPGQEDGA
The assay is described as follows: IC50 test on AXL kinase (Z′-LYTE FRET kinase activity detection). In kind it is biochemical. Conditions: for IC50: Z′-LYTE FRET peptide assay, 1 h reaction. The text has this: Kinase activity detection: The activity of compounds on kinases was detected by a secondary reaction which used the Z′-LYTE™ technique (a detection using fluorescence, enzyme coupling, and based on differences in susceptibility of phosphorylated and non-phosphorylated polypeptides to proteolytic cleavage), followed the fluorescence resonance energy transfer (FRET) principle, and used Z′-LYTE™ FRET peptide substrates (Invitrogen, Z′-LYTE™ KINASE ASSAY KIT—TYR 2 PEPTIDE, PV3191). AXL kinase (invitrogen, PV4803) was diluted stepwise, FRET peptide was then added, followed by ATP, then by compounds at different concentrations, reacted for 1 h, site-specific proteases were then added to recognize and cleave non-phosphorylated FRET peptides, reacted for 1 h, and […] at 445 nm and 520 nm were detected using excitation wavelength of 400 nm.

The target of assay [2] is T2, FLT-3 kinase domain recombinant protein (Homo sapiens, UniProt P36888).
T2 construct: 50 μL FLT-3 kinase domain recombinant protein diluted with reaction buffer to initiate the reaction
T2 sequence (P36888 610-943 limits assumed): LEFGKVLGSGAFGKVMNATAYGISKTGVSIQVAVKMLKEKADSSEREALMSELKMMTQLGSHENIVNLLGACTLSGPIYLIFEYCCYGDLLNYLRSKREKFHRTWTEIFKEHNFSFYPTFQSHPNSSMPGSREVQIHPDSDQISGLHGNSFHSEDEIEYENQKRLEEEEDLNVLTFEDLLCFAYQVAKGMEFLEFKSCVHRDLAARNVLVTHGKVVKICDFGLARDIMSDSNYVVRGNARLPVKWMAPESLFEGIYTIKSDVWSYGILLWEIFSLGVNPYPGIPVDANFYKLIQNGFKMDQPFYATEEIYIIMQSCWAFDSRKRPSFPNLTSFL
Nature of the assay: Inhibition rate on FLT3 kinase (ELISA). Conditions: two values per compound; for inhibition at 0.01 µM / inhibition at 0.1 µM / inhibition at 1 µM: read-out: Inhibition rate (%) against receptor tyrosine kinase FLT-3. It is filed as biochemical. On the procedure: Conventional enzyme-linked immunosorbent assay (ELISA) method is used, and the specific steps are as follows
12,000 g of compounds were centrifuged for 5 min, DMSO was added to make a 10^−2M stock solution, vortexed uniformly and sonicated for 10 min for standby application, and stored at −40° C. The compounds were diluted from the stock solution with DMSO to 100 times the concentration to be tested (concentration of DMSO in the system being 1%) during the test.
1. The enzyme reaction substrate Poly (Glu, Tyr) 4:1 was diluted to 20 μg/mL with potassium-free PBS (10 mM sodium phosphate buffer, 150 mM NaCl, pH 7.2-7.4), the ELISA plate was coated with same in 125 μL/well, and reacted at 37° C. for 12-16 hours, the liquid in wells was discarded, the plate was washed three times, for 5 minutes each time, with T-PBS (potassium-free PBS with 0.1% Tween-20, 200 μL/well), and the ELISA plate was dried in an oven at 37° C. for 1-2 hours.
2. To each well were added 49 μL of ATP solution diluted with reaction buffer (50 mM HEPES pH 7.4, 50 mM MgCl2, 0.5 mM MnCl2, 0.2 mM Na3VO4, 1 mM DTT), 1 μL of compounds to be tested, and 50 μL FLT-3 kinase domain recombinant protein diluted with reaction buffer to initiate the reaction (two ATP-free control wells are required for each experiment). Subject to a shaker (100 rpm) at 37° C. and reacted for 1 hour. The liquid in wells was discarded, and the plate was washed three times with T-PBS.
3. Antibody PY99 diluent (the antibody was diluted in 1:500 with T-PBS which contains 5 mg/mL BSA) was added in 100 μL/well, subjected same to a shaker at 37° C. and reacted for 0.5 hour. The liquid in wells was discarded, and the plate was washed three times with T-PBS.
4. Horseradish peroxidase labeled goat anti-mouse secondary antibody diluent (the antibody was diluted in 1:2000 with T-PBS which contains 5 mg/ml BSA) was added in 100 μL/well, subjected same to a shaker at 37° C. and reacted for 0.5 hour. The liquid in wells was discarded, and the plate was washed three times with T-PBS.
5. 2 mg/ml of OPD developing solution (diluted with 0.1 M citric acid-sodium citrate buffer which contains 0.03% H2O2 (pH=5.4)) was added in 100 μL/well, and reacted at 25° C. in the dark for 1-10 minutes.
6. 2 M H2SO4 was added in 50 μL/well to stop the reaction, and the reading from the wavelength-adjustable microwell plate ELIASA VERSAmax was performed with a wavelength of 490 nm.
On the technique in general: In an ELISA, binding on a coated surface is turned into a signal by an enzyme label.

Turning to `Cc1c(C(=O)Nc2ccc(Oc3ncnc4[nH]cc(-c5ccccc5)c34)c(F)c2)c(=O)c2cc(C(C)C)ccc2n1C` [TL50172, N-(3-fluoro-4-(5-phenyl-7H-pyrrolo[2,3-d]pyrimidin-4-yloxy)phenyl)-6-isopropyl-1,2-dimethyl-4-oxo-1,4-dihydroquinoline-3-carboxamide], half-maximal inhibition in assay [1] (IC50) was put at 26 nM. Besides, the “Inhibition rate (%) against receptor tyrosine kinase FLT-3” value (shortened to “Inhibition rate (%)”) in assay [2] (compound 10 nM, 0.01 µM) worked out at 54.2%; in assay [2] (compound 100 nM, 0.1 µM) it was 72.9%; in assay [2] (compound 1000 nM, 1 µM) it was 84.6%. The inhibition at 0.01 µM in assay [2] (compound 10 nM) turned out to be 59.4%. In addition, the inhibition at 0.1 µM in assay [2] (compound 100 nM) came to 62.6%. Moreover, the inhibition at 1 µM in assay [2] (compound 1000 nM) was found to be 81.8%.
For `CCc1ccc2c(c1)c(=O)c(C(=O)Nc1ccc(Oc3ncnc4[nH]cc(-c5cnn(C)c5)c34)c(F)c1)c(C)n2C` [GDL5000038, 6-ethyl-N-(3-fluoro-4-(5-(1-methyl-1H-pyrazol-4-yl)-7H-pyrrolo[2,3-d]pyrimidin-4-yloxy)phenyl)-1,2-dimethyl-4-oxo-1,4-dihydroquinoline-3-carboxamide], it took 34 nM to reach half-maximal inhibition in assay [1] (IC50). Moreover, the “Inhibition rate (%)” value is recorded as 55.0% in assay [2] (compound 10 nM, 0.01 µM); 73.0% in assay [2] (compound 100 nM, 0.1 µM); 95.9% in assay [2] (compound 1000 nM, 1 µM). Moreover, in assay [2] (compound 10 nM), the inhibition at 0.01 µM worked out at 58.3%. For the same molecule, in assay [2] (compound 100 nM), the inhibition at 0.1 µM was 80.7%. Moreover, the inhibition at 1 µM in assay [2] (compound 1000 nM) amounted to 98.2%.
Take `COc1cc2ncnc(Oc3ccc(NC(=O)c4cn5c6c(cc(C)cc6c4=O)CCC5)cc3F)c2cc1OC` [TL4830032, N-(4-((6,7-dimethoxyquinazolin-4-yl)oxy)-3-fluorophenyl)-9-methyl-1-oxo-1,5,6,7-tetrahydropyrido[3,2,1-ij]quinoline-2-carboxamide]: in assay [1], it took 26.5 nM to reach half-maximal inhibition (IC50). Also, the “Inhibition rate (%)” value came to 62.8% in assay [2] (compound 10 nM, 0.01 µM); 56.6% in assay [2] (compound 100 nM, 0.1 µM); 68.5% in assay [2] (compound 1000 nM, 1 µM). For the same molecule, the inhibition at 0.01 µM in assay [2] (compound 10 nM) was 63.8%. The inhibition at 0.1 µM in assay [2] (compound 100 nM) was determined as 69.8%. Further, the inhibition at 1 µM in assay [2] (compound 1000 nM) was found to be 72%.
The molecule `Cc1c(C(=O)Nc2ccc(Oc3ncnc4[nH]cc(-c5ccccc5)c34)c(F)c2)c(=O)c2cc(OC(F)(F)F)ccc2n1C` [TL4800117, N-(3-fluoro-4-((5-phenyl-7H-pyrrolo[2,3-d]pyrimidin-4-yl)oxy)phenyl)-1,2-dimethyl-4-oxo-6-(trifluoromethoxy)-1,4-dihydroquinoline-3-carboxamide] showed an IC50 in assay [1] of 75 nM. Further, the “Inhibition rate (%)” value in assay [2] (compound 10 nM, 0.01 µM) amounted to 61.5%; in assay [2] (compound 100 nM, 0.1 µM), 70.2%; in assay [2] (compound 1000 nM, 1 µM) it was 74.1%. In assay [2] (compound 10 nM), the inhibition at 0.01 µM was found to be 59.5%. Moreover, the inhibition at 0.1 µM in assay [2] (compound 100 nM) was 76.3%. The inhibition at 1 µM in assay [2] (compound 1000 nM) was 83.8%.
In assay [1], “6-ethyl-N-(3-fluorophenyl-1H-pyrrolo[2,3-d]pyridin-4-yl)oxy)phenyl)-1,2-dimethyl-4-oxo-1,4-dihydroquinoline-3-carboxamide [TL4800172]” gave an IC50 of 29.8 nM. In assay [1] (competitive experiment with ATP, in words), the “inhibitory activity on AXL kinase” value is “strong inhibitory activity”. Also, the “Inhibition rate (%)” value in assay [2] (compound 10 nM, 0.01 µM) was 63.7% and 55.0%; in assay [2] (compound 100 nM, 0.1 µM) it was 74.9% and 67.8%; in assay [2] (compound 1000 nM, 1 µM) it was 85.5% and 72.0%.
For `CCc1ccc2c(c1)c(=O)c(C(=O)Nc1ccc(Oc3ncnc4[nH]cc(-c5ccccc5)c34)c(C)c1)c(C)n2C` [TL4830016, 6-ethyl-12-dimethyl-N-(3-methyl-4-(5-phenyl-7H-pyrrolo[2,3-d]pyrimidin-4-yloxy)phenyl)-4-oxo-1,4-dihydroquinoline-3-carboxamide], the IC50 in assay [1] was determined as 1120 nM. Further, the “Inhibition rate (%)” value in assay [2] (compound 10 nM, 0.01 µM) came to 66.5%; in assay [2] (compound 100 nM, 0.1 µM) it was 66.1%; in assay [2] (compound 1000 nM, 1 µM), 70.1%. Also, the inhibition at 0.01 µM in assay [2] (compound 10 nM) worked out at 50.2%. Also, the inhibition at 0.1 µM in assay [2] (compound 100 nM) came out at 58.3%. The inhibition at 1 µM in assay [2] (compound 1000 nM) is 67.1%.
Consider `Cc1c(C(=O)Nc2ccc(Oc3ncnc4[nH]ccc34)c(F)c2)c(=O)c2cc(Cl)ccc2n1C` [TL50046, N-(4-((7H-pyrrolo[2,3-d]pyrimidin-4-yl)oxy)-3-fluorophenyl)-6-chloro-1,2-dimethyl-4-oxo-1,4-dihydroquinoline-3-carboxamide], for which the IC50 in assay [1] is > 10000 nM.
In the case of `CCc1ccc2c(c1)c(=O)c(C(=O)Nc1ccc(Oc3ncnc4cc(OCCCN(C)C)c(OC)cc34)c(F)c1)c(C)n2C` [TL4830076, N-(4-(7-(3-(dimethylamino)propoxy)-6-methoxyquinazolin-4-yloxy)-3-fluorophenyl)-6-ethyl-1,2-dimethyl-4-oxo-1,4-dihydroquinoline-3-carboxamide], half-maximal inhibition in assay [1] (IC50) was put at 1.1 nM.
Same read-out and setting: with `Cc1ccc2c(c1)c(=O)c(C(=O)Nc1ccc(Oc3ncnc4c3c(-c3ccccc3)cn4C)c(F)c1)c(C)n2C` [TL50134, N-(3-fluoro-4-(7-methyl-5-phenyl-7H-pyrrolo[2,3-d]pyrimidin-4-yloxy)phenyl)-1,2,6-trimethyl-4-oxo-1,4-dihydroquinoline-3-carboxamide] the figure was > 10000 nM; with `Cc1c(C(=O)Nc2ccc(Oc3ncnc4[nH]cc(-c5ccccc5)c34)c(F)c2)c(=O)c2cc(Br)ccc2n1C` [TL50133, 6-bromo-N-(3-fluoro-4-((5-phenyl-7H-pyrrolo[2,3-d]pyrimidin-4-yl)oxy)phenyl)-1,2-dimethyl-4-oxo-1,4-dihydroquinoline-3-carboxamide], 3120 nM.
